Article PMC4473678, “Swedish mutant APP-based BACE1 binding site peptide reduces APP β-cleavage and cerebral Aβ levels in Alzheimer’s mice” (Scientific Reports, 2015)
“Also recorded” adds a separate entry of the source.

How the values were obtained:
[1] = phase II, suspended June 2013; cited from earlier work
Source text: Although these BACE1-null abnormalities are relatively mild, they are complex neurological phenotypes that raise a concern that complete inhibition or entire absence of BACE1 function may not be fre ...

treated patients = conditions: Phase III; cited from earlier work
Source text: Presenilin 1 and 2 (PS1/PS2), two integral membrane proteins found in the endoplasmic reticulum and Golgi apparatus, are the major enzymatic targets for γ-secretase inhibition for the treatment of AD[5]. However, apart from their roles in AD, PS1/PS2 also controls the Notch signaling pathway responsible for cell proliferation and differentiation during embryonic development. PS1/PS2-null mice have massive neuronal loss, skeletal defects, underdeveloped subventricular areas and severe hemorrhages, and only a few types of PS1/PS2-null mouse models survive after birth. Other subst ...

[2] = biological target: recombinant BACE1 protein (β-site APP cleaving enzyme 1) (UniProt P56817)
Sequence of recombinant BACE1 protein (β-site APP cleaving enzyme 1) (P56817 46-501): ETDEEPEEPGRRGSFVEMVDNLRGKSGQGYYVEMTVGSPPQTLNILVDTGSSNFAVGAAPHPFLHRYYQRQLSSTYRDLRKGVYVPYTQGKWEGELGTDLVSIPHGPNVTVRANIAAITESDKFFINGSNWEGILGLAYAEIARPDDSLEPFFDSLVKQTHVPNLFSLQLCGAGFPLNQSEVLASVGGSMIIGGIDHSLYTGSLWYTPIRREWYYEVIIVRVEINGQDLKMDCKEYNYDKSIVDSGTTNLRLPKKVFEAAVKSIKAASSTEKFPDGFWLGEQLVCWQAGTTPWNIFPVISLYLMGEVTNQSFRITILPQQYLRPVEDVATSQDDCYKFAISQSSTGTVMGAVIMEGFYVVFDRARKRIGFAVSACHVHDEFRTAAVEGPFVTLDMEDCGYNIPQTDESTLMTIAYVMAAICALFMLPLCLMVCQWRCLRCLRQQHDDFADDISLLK

recombinant BACE1 = test: BACE1 activity (FRET) assay, cell-free; format: biochemical; conditions: for % of Inhibition of BACE1: FRET substrate Rh-EVNLDAEFK-quencher, dark, ex 545/em 585 nm, mean ± SD
Protocol: The BACE1 inhibiting activity of APP-based BACE1 site binding peptides were determined using a fluorescence resonance energy transfer (FRET) assay (Pan Vera Co., Madison, WI), which employs a recombinant baculovirus-expressed BACE1 and a specific substrate (Rh-[…]-quencher) that is based on the APPswe mutation. This specific peptide substrate becomes highly fluorescent upon enzymatic cleavage. […] Then, 10 μL of BACE1 stop buffer (2.5 M sodium acetate) was added to the mixture. Fluorescence was read using a fluorometer, with excitation at 545 nm and emission at 585 nm.

brain of 5XFAD mice = conditions: mouse, in vivo
Protocol: 5XFAD mice at 2 months of age (n = 5, female) were treated intraperitoneally with biotin-labeled TAT-APPsweBBP or APPsweBBP (100 nmol/kg) daily for 5 days and then euthanized 4 h after the last injection. Brain tissues were removed, sectioned and stained with anti-BACE1 and anti-biotin antibodies.
Fixed cell cultures and brain sections were stained with indicated antibodies and then treated with donkey anti-mouse IgG conjugated with Alexa Fluor 488 (1:200) or goat anti-rabbit IgG conjugated with Alexa Fluor 594 (1:200; Invitrogen, Carlsbad, CA). The slides were then washed, mounted with DAPI medium (Vector Laboratories, Burlingame, CA) and visualized with an Olympus FV1000 confocal microscope (Tokyo, Japan).

BACE1 = conditions: cited from earlier work
[3] = tested on: recombinant BACE1 protein; test: Immunoprecipitation/WB of peptide-BACE1 binding, cell-free; conditions: 10 μg biotin-labeled peptide with 10 μL recombinant BACE1 (1.0 U/mL), 4 h, 37 °C; anti-BACE1 IP/anti-biotin WB and reverse
Protocol: In order to confirm that APPsweBBP containing the β-cleavage site could bind to and be consequently proteolyzed by BACE1, 10 μg of biotin-labeled TAT-APPsweBBP was incubated with or without 10 μL of recombinant BACE1 protein (1.0 U/mL) in BACE1 reaction buffer for 4 h at 37 °C and then subjected to WB analysis as described previously. In addition, we performed immunoprecipitation (IP) and WB analyses of this mixture with anti-BACE1 and anti-biotin antibodies to confirm that TAT-APPsweBBP, but not TAT, specifically binds to BACE1.

WT mice [4] = test: Rotarod test, WT mice; format: in vivo, mouse; conditions: 100 nmol/kg i.p. daily, 8 weeks, n = 10 per treatment
Akt and MBP = test: WB of myelin signaling (Akt, MBP) in brain homogenates, 5XFAD mice; format: in vivo, mouse; conditions: TAT-APPsweBBP, TAT and PBS groups compared
Protocol: (§1) Transgenic AD mice [5XFAD; B6SJL-Tg(APPSwFlLon,PSEN1*M146L*L286V) 6799Vas/Mmjax] at 2.5 months of age were obtained from the Jackson Laboratory (Bar Harbor, ME) and housed and maintained in the Animal Facility of College of Medicine at University of South Florida (USF). The mice at 3.5 months of age were treated with TAT-APPsweBBP, TAT peptide (100 nmol/kg in 100 μL PBS) or PBS (100 μL) daily by intraperitioneal injection (i.p.) for eight consecutive weeks. The mice were subjected to behavioral testing after 8-week treatment and then euthanized for immunohistochemical, WB and ELISA analyses. Animals were housed and maintained at USF and all experiments were in compliance with protocols approved by USF Institutional Animal Care and Use Committee. All methods were performed in accordance with relevant guidelines and regulations.
WB analysis was performed as previously described. Briefly, the proteins from the various cell-free suspensions, cell lysates and brain homogenates were electrophoretically separated using 10% bicine/tris gel (8 M urea) for proteins less than 5 kD or 10% tricine/tris gels for larger proteins. Electrophoresed proteins were transferred to polyvinylidene difluoride membranes (Bio-Rad, Richmond, CA), washed and blocked for 2 h at room temperature in Tris-buffered saline containing 5% (w/v) nonfat dry milk (TBS/NFDM). […]

5XFAD mice [5] = test: β-amyloid immunohistochemistry (4G8), 5XFAD mice; format: in vivo, mouse; conditions: 100 nmol/kg i.p. daily, 8 weeks, RSC, EC and H regions, n = 10, 5 female/5 male
Protocol: as §1
For paraffin brain tissues, we sectioned five coronal sections per region with a 100-μm interval and a thickness of 5-μm for retrosplenial cortex (RSC), entorhinal cortex (EC), and hippocampus (H), located at bregma −2.92 to −3.64 mm. […] Images were acquired as digitized tagged-image format files (to retain maximum resolution) using a BX60 microscope with an attached CCD camera system (DP-70, Olympus, Tokyo, Japan), and digital images were routed into a Windows PC for quantitative analyses using SimplePCI software (Hamamatsu Photonics, Hamamatsu, Shizuoka, Japan). […]

5XFAD mice [6] = test: Rotarod test, 5XFAD mice; format: in vivo, mouse; conditions: 100 nmol/kg i.p. daily, 8 weeks, n = 10 per treatment
Protocol: as §1
The rotarod task was also performed to exclude the possibility that positive effects of any treatment in RAWM test are due to improvements in sensorimotor ability. Mice were positioned on the rod (diameter 3.6 cm) of the equipment (Rotarod 7650 accelerating model; Ugo Basile, Biological Research Apparatus, Varese, Italy), which was initially set at 1.0 rpm. The rod was then allowed to steadily accelerate up to 40.0 rpm over a 3-min session and evaluation was made by monitoring latency to fall.

WT mice [7] = test: Radial arm water maze (RAWM), WT mice; format: in vivo, mouse; conditions: 100 nmol/kg i.p. daily, 8 weeks, n = 10 per treatment
[8] = peptide final concentration 20 μM, 90 min, room temperature

NC1=N[C@@]2(c3cc(NC(=O)c4ccc(F)cn4)ccc3F)COC[C@H]2CS1 [LY2886721]
liver toxicity [1]: possible liver toxicity

CC(C)[C@H](O)C(=O)N[C@@H](C)C(=O)N[C@@H]1C(=O)N(C)CCc2ccccc21 [semagacestat]
activities of daily living and cognition (treated patients): activities of daily living and cognition even worsened in the treated patients

APPswe BACE1 binding site peptide (APPsweBBP) (from UniProt P05067 665-676)
percent inhibition of BACE1 activity in a cell-free FRET assay (substrate Rh-…-quencher), peptide at 20 μM [2]: 38.4%

APPwt BACE1 binding site peptide (APPwtBBP)
percent inhibition of BACE1 activity in a cell-free FRET assay (substrate Rh-…-quencher), peptide at 20 μM [2]: 16.2%

EISEVKMDAEFR
% of Inhibition of BACE1 (recombinant BACE1; [8]): 16.23 ± 0.29%

EISEVNLDAEFR
BACE1 inhibition (result in words) (recombinant BACE1; FRET assay, APPsweBBP or TAT-APPsweBBP at 0.05, 0.5, 5 and 20 μM (Fig. 1)): strongly inhibits BACE1 activity; also recorded: competitively inhibits the cleavage of commercial BACE1 substrate; also recorded: most effective BACE1 inhibitor; also recorded: much greater | percentage inhibition of BACE1 (recombinant BACE1; FRET assay, peptide final concentration 20 μM, 90 min, room temperature): ~ 40% | % of Inhibition of BACE1 (recombinant BACE1; [8]): 38.43 ± 1.01% | BBB penetration (Fig. S4 legend) (brain of 5XFAD mice): stopped at the capillary lumen | biotin distribution, 5XFAD versus WT control mice (brain of 5XFAD mice; ip): No noticeable differences in biotin distribution

EVKMDAEFR
% of Inhibition of BACE1 (recombinant BACE1; [8]): 4.89 ± 0.06%

EVNLA*AEF [OM99-2]
BBB crossing (BACE1): too large to cross the BBB | potency (BACE1): high level of potency | stability (BACE1): not stable enough for use in therapeutic trials

EVNLDAEFR
% of Inhibition of BACE1 (recombinant BACE1; [8]): 14.32 ± 0.04%

TAT-APPwtBBP (APPwt BACE1 binding site peptide fused with TAT)
percent inhibition of BACE1 activity in a cell-free FRET assay (substrate Rh-…-quencher), peptide at 20 μM [2]: 21%

YGRKKRRQRRR [TAT (YGRKKRRQRRR), reference compound]
binding to BACE1 (co-immunoprecipitation) [3]: but not TAT peptide, binds to BACE1 | % of Inhibition of BACE1 (recombinant BACE1; [8]): 3.32 ± 0.02% | rotarod latency to fall (WT mice [4]): no differences between treatment groups on each day | Akt (total/phosphorylated) in brain homogenates (Akt and MBP): differ between TAT-APPsweBBP-, TAT- and PBS-treated 5XFAD mice | myelin basic protein (MBP) expression in brain homogenates (Akt and MBP): differ between TAT-APPsweBBP-, TAT- and PBS-treated 5XFAD mice | β-amyloid plaques / 4G8 immunoreactive area (5XFAD mice [5]): no significant difference between TAT peptide and PBS groups | rotarod latency to fall / motor performance (5XFAD mice [6]): no differences between treatment groups on each day | RAWM entry-arm errors (WT mice [7]): no difference among the various treatment groups

YGRKKRRQRRREISEVKMDAEFR [APPwtBBP fused with TAT]
% of Inhibition of BACE1 (recombinant BACE1; [8]): 21.01 ± 1.42%

biotin-labeled TAT-APPsweBBP (human Swedish mutant APP BACE1 binding site peptide conjugated to the HIV-1 TAT protein-transduction domain) (from UniProt P05067 665-676)
percent inhibition of BACE1 activity in a cell-free FRET assay (substrate Rh-…-quencher), peptide at 0.05, 0.5, 5 and 20 μM [2]: > 90%
